US20250388597A1, “BIFUNCTIONAL PHOTOCROSSLINKING PROBES FOR COVALENT CAPTURE OF PROTEIN-NUCLEIC ACID COMPLEXES IN CELLS” (UNIVERSITY OF SOUTHERN CALIFORNIA, priority 2022, published 2025)

Key:
[1] = Precipitation of probe in the aqueous crosslinking reaction; type: physicochemical; settings: aqueous binding reaction; SPB-AAD 125 μM (FIG. 7 lanes 4, 9); SPB-PEG3-AAD 100 μM (FIG. 8C lanes 2, 6)
Procedure: The robust stability of these complexes under strong denaturing conditions (2% SDS and boiling for 10 min) is consistent with the covalent nature of the crosslinking reaction as designed in BFPX. […] As the probe concentration increased, more crosslinked protein/DNA complexes were formed, and the multiple bands likely represented protein-DNA complexes with various degrees of crosslinking, because multiple SPB-AAD molecules could bind the flanking region of the DNA binding sites and engage crosslinking reactions with the protein. At high probe concentrations (lane 5 and lane 10), the complexes become more uniform, likely due to the saturation binding of the BFPX probe to DNA.
For the BFPX probe SPB-PEG3-AAD, when the probe concentration was sufficiently high (lane 3 and lane 7 of FIG. 8C), the crosslinking efficiency was more than 90% for the MEF2/DNA complex based on the DNA signal (comparing lane 3 and lane 1 in the 5FAM gel, the free DNA in lane 3 was nearly all gone as compared the strong band in lane 1). This is consistent with the protein signal (compare lane 3 and lane 1 in the CCB-250 stained gel, the free protein in lane 3 was very faint as compared with the strong band in lane 1).

DNA binding by NFAT1 = biological target: T1, DNA binding by NFAT1 (Homo sapiens, UniProt Q13469); experiment: Native EMSA of the effect on DNA binding by NFAT1; type: biochemical; settings: FIG. 12C; increasing concentrations; probes with UV 365 nm 15 min; compared to control lane 3
T1 construct: human NFAT1 protein (residue 399-676, NFAT1-DBD)
T1 sequence (Q13469 399-676): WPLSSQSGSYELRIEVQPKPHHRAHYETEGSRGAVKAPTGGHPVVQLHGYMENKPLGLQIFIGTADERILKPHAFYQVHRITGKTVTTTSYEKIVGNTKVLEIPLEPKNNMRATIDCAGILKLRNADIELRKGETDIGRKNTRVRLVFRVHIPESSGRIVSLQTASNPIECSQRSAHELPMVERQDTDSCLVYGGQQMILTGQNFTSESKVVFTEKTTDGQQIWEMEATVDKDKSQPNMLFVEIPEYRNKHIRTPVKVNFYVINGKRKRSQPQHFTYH
Procedure: All binding reactions contain 10 μM 27 mer dsDNA (5′6-FAM labeled) with a NFAT-binding site, and various combinations of NFAT1 protein (14 μM), FA (1% v/v), 4AMT-LC-SDA (20 μM), with or without UV illumination (365 nm, LED, 30 Watt, sample distance 2 cm, exposure time 15 min at 4 degree C.). 10 μl of the binding reaction is run on a 10% PAGE 0.5×TBE gel. The same gel was visualized by FAM fluorescence for DNA (top) and by Coomassie blue stain for protein (bottom). The higher smearing bands in lane 3, 8, 9, and 10 are most likely non-specific protein complexes often seen when an excessive amount of protein is used to ensure all DNA is bound.
The binding reactions were performed in a buffer of 20 mM Hepes pH 7.6, 150 mM NaCl, 1 mM DTT, 12% glycerol. Typically protein and DNA are mixed to bind at room temperature for 30 min, followed by addition of BFPX probes for an additional 15 min and then UV illumination. In the case of FA treatment, the reaction time is 10 min at room temperature and then quenched by 250 mM glycine. When included (as indicated by a positive sign), the binding reaction contains 10 μM 27 mer dsDNA (Cy5-labeled) with a NFAT-binding site (the antigen receptor response element 2, ARRE2, from the IL-2 promoter, 5′-Cy5-[sequence]-3′ (SEQ ID NO: 2), the complementary strand is not labeled), 24 μM of the DNA binding domain (DBD) of human NFAT1 protein (residue 399-676, NFAT1-DBD). The UV illumination (as indicated by a positive sign) was carried out using a LED Chip (21.4 mm×21.4 mm, 365-370 nm, 30 Watt, sample distance 2 cm, exposure time 2-15 min at 4 degree C., here the exposure time is 15 min). Half of the binding reaction (7.5 μl) was run on a 10% PAGE 0.5×TBE gel and visualized by Cy5 fluorescence on DNA. The small amount of single stranded DNA is due to incomplete annealing. The higher smearing bands are most likely non-specific protein complexes. Neither of these experimental imperfections affected the main conclusion of this experiment because the double stranded-DNA bands and the specific NFAT-DNA complex bands (the middle sharp bands) are well defined and can be monitored without the interference of the other bands.
The presence of both DNA and protein in the same shifted band can be checked by the FAM fluorescence signal (top) and Coomassie stain (bottom), respectively (free NFAT is positively charged and not observable under the EMSA condition).

[2] = biological target: T2, FOXP3 covalently linked to genomic DNA in HEK293T cells (Homo sapiens, UniProt Q9BZS1); experiment: TRIzol extraction of genomic DNA from BFPX-treated HEK293T cells, Benzonase digestion, anti-FLAG western blot; type: cell-based; settings: probe 100 μM + UV (lanes 4 and 5) vs controls (lane 1-3)
T2 construct: AVI tag (N); TEV site (N); expressed in transfected cells; host or cells: HEK293T
T2 sequence (Q9BZS1 1-431): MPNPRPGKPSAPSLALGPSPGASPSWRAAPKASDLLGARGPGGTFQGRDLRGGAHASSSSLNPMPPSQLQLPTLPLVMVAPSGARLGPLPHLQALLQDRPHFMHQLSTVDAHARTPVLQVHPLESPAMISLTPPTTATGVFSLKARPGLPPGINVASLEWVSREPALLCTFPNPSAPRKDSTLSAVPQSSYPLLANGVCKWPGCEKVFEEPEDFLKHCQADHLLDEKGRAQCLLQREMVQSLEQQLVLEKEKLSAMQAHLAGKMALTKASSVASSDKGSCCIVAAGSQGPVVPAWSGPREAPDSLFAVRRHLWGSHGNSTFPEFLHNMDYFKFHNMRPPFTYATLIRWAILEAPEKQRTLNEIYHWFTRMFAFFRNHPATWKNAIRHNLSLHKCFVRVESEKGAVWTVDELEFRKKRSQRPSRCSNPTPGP
Procedure: FIG. 14D depicts for the same BFPX-treated HEK293T cells transfected with AVI-TEV-FLAG-FOXP3 described in (FIG. 14C), TRIzol was used to extract genomic DNA. Briefly, for each aliquot of 0.25 million of cells, lyse and homogenize the sample in 200 μl TRIzol™ Reagent. Incubate for 5 minutes to permit complete dissociation of the nucleoproteins complex. 40 μl of chloroform was then added to the sample to incubate for 3 min. The sample was then centrifuged for 15 minutes at 12,000×g at 4° C. to separate into a lower red phenol/chloroform-interphase layer and a colorless upper aqueous phase. The upper aqueous phase was removed by pipetting. […] Run at 200V for 40 minutes on 4%-15% SDS-PAGE gel and analyzed by western blot (Transfer at 20V (40 mA) overnight, block in 2% BSA in PBS for 45 min, Primary antibody: 1:2000 anti-FLAG; room temperature, 2 hr; Secondary antibody: anti mouse light chain kappa 1:100,000; SuperSignal™ Western Blot Substrate Bundle, Femto).
TRIzol uses strong denaturing reagent (e.g. 4 M guanidine thiocyanate) to lyse the cells and completely dissociate nucleoprotein complexes. The extracted genomic DNA was then digested extensively with Benzonase and analyzed by SDS PAGE gel and western blot. […]

C#CCCC1(CCNC(=O)CCOCCOCCOCCC(=O)NCCNC(=O)CCCOc2c3occc3cc3ccc(=O)oc23)N=N1 [SPB-PEG3-AAD]
precipitation of probe at highest probe concentration [1]: the probe precipitated out of solution

C#CCCC1(CCNC(=O)CCCOc2c3occc3cc3ccc(=O)oc23)N=N1 [SPB-AAD, N-(2-(3-(but-3-yn-1-yl)-3H-diazirin-3-yl)ethyl)-4-((7-oxo-7H-furo[3,2-g]chromen-9-yl)oxy)butanamide]
effect on the binding of NFAT1 to DNA (DNA binding by NFAT1): little or no effect
precipitation of probe at highest probe concentration [1]: precipitation of the probe in an aqueous solution
FOXP3 co-extracted with genomic DNA under strong denaturing conditions [2]: showed FOXP3 proteins

C#CCCC1(CCNC(=O)CCOCCOCCOCCOCCNC(=O)CCCOc2c3occc3cc3ccc(=O)oc23)N=N1 [SPB-PEG4-AAD, N-(2-(3-(but-3-yn-1-yl)-3H-diazirin-3-yl)ethyl)-1-(4-((7-oxo-7H-furo[3,2-g]chromen-9-yl)oxy)butanamido)-3,6,9,12-tetraoxapentadecan-15-amide]
effect on the binding of NFAT1 to DNA (DNA binding by NFAT1): little or no effect
